Test results as given in US20250255815A1, “NUCLEIC ACIDS ENCODING A CONSTITUTIVELY-ACTIVE CYCLIC GMP-AMP SYNTHASE AND IMMUNOGENIC DELIVERY VEHICLES FOR SAME” (Corner Therapeutics, Inc., priority 2022, published 2025).

B1: cGASΔN: constitutively-active truncated human cGAS, C-terminal domain (SEQ ID NO:1) (protein, listed as Homo sapiens)
chain: PGASKLRAVLEKLKLSRDDISTAAGMVKGVVDHLLLRLKCDSAFRGVGLLNTGSYYEHVKISAPNEFDVMFKLEVPRIQLEEYSNTRAYYFVKFKRNPKENPLSQFLEGEILSASKMLSKFRKIIKEEINDIKDTDVIMKRKRGGSPAVTLLISEKISVDITLALESKSSWPASTQEGLRIQNWLSAKVRKQLRLKPFYLVPKHAKEGNGFQEETWRLSFSHIEKEILNNHGKSKTCCENKEEKCCRKDCLKLMKYLLEQLKERFKDKKHLDKFSSYHVKTAFFHVCTQNPQDSQWDRKDLGLCFDNCVTYFLQCLRTEKLENYFIPEFNLFSSNLIDKRSKEFLTKQIEYERNNEFPVFDEF

Columns and labels:
canine PBMCs = assay: IL-1β secretion by canine PBMCs (ELISA); type: cell-based; details: two days in culture, R848 1 μg/mL, 22:0 LYSO PC 82.5 μM
Description: (§1) Isolation of PBMCs from Whole Blood. PBMCs were isolated from whole blood using density gradient centrifugation with Ficoll-Paque PLUS (Cytivia). Whole blood was diluted 1:1 with PBS, layered on top of Ficoll-Paque PLUS and centrifuged at 1000×g for 30 minutes at room temperature. PBMCs were collected, washed twice in PBS, and incubated with Ack lysis buffer (Lonza) to remove any remaining red blood cells.
(§2) Cell Culture and Stimulation. Immediately following isolation, PBMCs were plated in RPMI medium containing 10% FBS, 50 units/mL penicillin, […] streptomycin, 2 mM L-glutamine, 1 mM sodium pyruvate, and […] beta-mercaptoethanol (R10 media). […]
(§3) Endpoint Analyses. […] Half of the media volume in the wells was collected for cytokine quantification by Enzyme-Linked Immunosorbent Assay (ELISA) or Lumit™ Bioluminescent assay, while the remaining media and cells were used to quantify cell viability by assessing metabolic activity.
(§4) Quantification of Cytokine Secretion. IL-1β secretion from human PBMCs was assessed using one of the following kits: ELISA MAX Deluxe Set Human IL-1β kit (Biolegend), Invitrogen Human IL-1β kit, or the Lumit™ Human IL-1β Immunoassay (Promega). IFNγ secretion from human PBMCs was assessed using the ELISA MAX Deluxe Set Human IFNγ (Biolegend) and TNFα secretion from human PBMCs was assessed using the Human TNFα Uncoated ELISA kit (Invitrogen). […]

human PBMCs [1] = assay: IL-1β secretion by human PBMCs (ELISA or Lumit); type: cell-based; details: two days in culture
Description: as §1, §2, §3, §4

human PBMCs [2] = assay: IFNγ and TNFα secretion by human PBMCs (ELISA); type: cell-based; details: two days post-hyperactivation
Description: Cell Culture and Stimulation. Immediately following isolation, PBMCs were plated in RPMI medium containing 10% FBS, 50 units/mL penicillin, […] streptomycin, 2 mM L-glutamine, 1 mM sodium pyruvate, and […] beta-mercaptoethanol (R10 media). Cells were plated at 1×10^5 (canine cells) or 1×10^6 (human cells) per well in 96-well flat bottom tissue culture plates. Lyophilized Vaccigrade R848 (Invivogen) was reconstituted and diluted according to manufacturer's recommendations and added to cells at a final concentration of 1 μg/mL. Immediately following, 22:0 LYSO PC was added to cells at a final concentration of 82.5 μM. […]
as §3, §4

[3] = system: human leukemia monocytic cell line; details: cited from earlier work

| Molecule | IL-1β secretion (canine PBMCs) | IL-1β secretion (human PBMCs [1]) | IFNγ secretion, fold change per donor relative to R848 alone (human PBMCs [2]) | expression of interferon and interferon-stimulated genes [3] |
| --- | --- | --- | --- | --- |
| GM-CSF: human GM-CSF (Peprotech), innate agonist | neither GM-CSF nor 2′3′cGAMP induced significant IL-1β secretion | did not induce levels of IL-1β secretion from human PBMCs significantly above background levels | neither GM-CSF nor 2′3′cGAMP elicited a substantial fold change in IFNγ secretion over R848 alone | – |
| Nc1nc2c(ncn2[C@@H]2O[C@@H]3COP(=O)(O)O[C@H]4[C@@H](O)[C@H](n5cnc6c(N)ncnc65)O[C@@H]4COP(=O)(O)O[C@@H]2[C@@H]3O)c(=O)[nH]1 [2′3′cGAMP, 2′3′cyclic GMP-AMP, reference compound] | neither GM-CSF nor 2′3′cGAMP induced significant IL-1β secretion | – | neither GM-CSF nor 2′3′cGAMP elicited a substantial fold change in IFNγ secretion over R848 alone | – |
| B1 | – | – | – | higher levels of expression of interferon and interferon-stimulated genes |
